This test concerns the target T1, Ba/F3 cell EGFR Exon20 ins NPH (Homo sapiens, UniProt P00533, INS773NPH).
T1 construct: expressed in transfected cells; host or cells: Ba/F3
Kind of test: Ba/F3 cell proliferation suppression, EGFR Exon20 ins NPH. It is filed as cell-based. To be noted: GI50 class; Ba/F3 cell line with NPH inserted at Exon20 of EGFR; 72 hours. In outline:
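Seed 3000–5000 cells/well; after 24 h add compound (12 conc., 0.3 nM–50 um final); incubate 72 h; add CellTiter-Glo, 10 min room temperature; read luminescence; GI50 from % growth vs control, triplicate.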
Regarding `C=CC(=O)Nc1cc(Nc2cc(N3OCC[C@@H]3c3ccc(F)c(Cl)c3)ncn2)c(OC)cc1N(C)CCOC` [compound 904, N-(5-((6-((R)-3-(3-chloro-4-fluorophenyl)isoxazolidine-2-yl)pyrimidine-4-yl)amino)-4-methoxy-2-((2-methoxyethyl)(methyl)amino)phenyl) acrylamide], the “Ba/F3 (NPH) Activity” value is “A (GI50 < 50 nM)”.
Under `C=CC(=O)Nc1cc(Nc2cc(N3OCC[C@@H]3c3cccc(F)c3F)ncn2)c(OC)cc1N1C[C@@H]2CCN(C)[C@@H]2C1` [compound 876, N-(5-((6-((R)-3-(2,3-difluorophenyl)isoxazolidine-2-yl)pyrimidine-4-yl)amino)-4-methoxy-2-((3aS,6aS)-1-methylhexahydropyrrolo [3,4-b]pyrrole-5(1H)-yl)phenyl) acrylamide] stands “A (GI50 < 50 nM)”.
Under `C=CC(=O)Nc1cc(Nc2cc(N3OCC[C@@H]3c3ccc(Cl)c(Cl)c3)ncn2)c(OC)cc1N1CCC(N2C[C@H]3C[C@@H]2CO3)CC1` [compound 690] stands “A (GI50 < 50 nM)”; under `C=CC(=O)Nc1cc(Nc2cc(N3OCC[C@@H]3c3ccc(F)cc3F)ncn2)c(OC)cc1N1CCOCC1` [compound 325, N-(5-((6-((R)-3-(2,4-difluorophenyl)isoxazolidine-2-yl)pyrimidine-4-yl)amino)-4-methoxy-2-morpholinophenyl) acrylamide], “A (GI50 < 50 nM)”.
Under `C=CC(=O)Nc1cc(Nc2cc(N3OCC[C@@H]3Cc3cccc(Cl)c3C)ncn2)c(OC)cc1N1CCC(N2C[C@H]3C[C@@H]2CO3)CC1` [compound 1030, N-(2-(4-((1R,4R)-2-oxa-5-azabicyclo [2.2.1]heptane-5-yl)piperidine-1-yl)-5-((6-((S)-3-(3-chloro-2-methylbenzyl)isoxazolidine-2-yl)pyrimidine-4-yl)amino)-4-methoxyphenyl) acrylamide] stands “A (GI50 < 50 nM)”; under `C=CC(=O)Nc1cc(Nc2cc(N3OCC[C@@H]3c3ccc4ccccc4c3)ncn2)c(OC)cc1N1CCC(N2CCN(C(C)C)CC2)CC1` [compound 550, N-(2-(4-(4-isopropylpiperazine-1-yl)piperidine-1-yl)-4-methoxy-5-((6-((R)-3-(naphthalene-2-yl)isoxazolidine-2-yl)pyrimidine-4-yl)amino)phenyl)acrylamide], “B (50 nM ≤ GI50 < 500 nM)”; under `C#Cc1cccc([C@H]2CCON2c2cc(Nc3cc(NC(=O)C=C)c(N4CCN(C5CC5)CC4)cc3OC)ncn2)c1` [compound 654, N-(2-(4-cyclopropylpiperazine-1-yl)-5-((6-((R)-3-(3-ethynylphenyl)isoxazolidine-2-yl)pyrimidine-4-yl)amino)-4-methoxyphenyl) acrylamide], “B (50 nM ≤ GI50 < 500 nM)”.
`C=CC(=O)Nc1cc(Nc2cc(N3OCC[C@@H]3c3cccc(F)c3F)ncn2)c(OC)cc1N1CCC(N2CCN(C3CC3)[C@H](C)C2)CC1` [Example 176, N-(2-(4-((R)-4-cyclopropyl-3-methylpiperazine-1-yl)piperidine-1-yl)-5-((6-((R)-3-(2,3-difluorophenyl)isoxazolidine-2-yl)pyrimidine-4-yl)amino)-4-methoxyphenyl) acrylamide]: the “Ba/F3 (NPH) Activity” value is “A (GI50 < 50 nM)”.
Under `C=CC(=O)Nc1cc(Nc2cc(N3OCC[C@@H]3Cc3cccc(F)c3C)ncn2)c(OC)cc1N1CCC(N2CCN(C3CC3)[C@H](C)C2)CC1` [compound 1004, N-(2-(4-((R)-4-cyclopropyl-3-methylpiperazine-1-yl)piperidine-1-yl)-5-((6-((S)-3-(3-fluoro-2-methylbenzyl)isoxazolidine-2-yl)pyrimidine-4-yl)amino)-4-methoxyphenyl) acrylamide] stands “A (GI50 < 50 nM)”; under `C=CC(=O)Nc1cc(Nc2cc(N3OCC[C@@H]3c3cc(F)cc(Cl)c3)ncn2)c(OC)cc1N1CCC(N2CCN(C3CCC3)CC2)CC1` [Example 189, N-(5-((6-((R)-3-(3-chloro-5-fluorophenyl)isoxazolidine-2-yl)pyrimidine-4-yl)amino)-2-(4-(4-cyclobutylpiperazine-1-yl)piperidine-1-yl)-4-methoxyphenyl) acrylamide], “A (GI50 < 50 nM)”; under `C=CC(=O)Nc1cc(Nc2cc(N3OCC[C@@H]3c3cccc(C#N)c3)ncn2)c(OC)cc1N1CCC(N2CCOCC2)CC1` [compound 400, N-(5-((6-((R)-3-(3-cyanophenyl)isoxazolidine-2-yl)pyrimidine-4-yl)amino)-4-methoxy-2-(4-morpholinopiperidine-1-yl)phenyl)acrylamide], “A (GI50 < 50 nM)”.
For the compound `C=CC(=O)Nc1cc(Nc2cc(N3OCC[C@@H]3c3cc(F)cc(F)c3)ncn2)c(OC)cc1N1CCC(N2C[C@H]3COC[C@H]3C2)CC1` [Example 105, N-(5-((6-((R)-3-(3,5-difluorophenyl)isoxazolidine-2-yl)pyrimidine-4-yl)amino)-4-methoxy-2-(4-((3aR, 6aS)-tetrahydro-1H-puro[3,4-c]pyrrole-5(3H)-yl)piperidine-1-yl)phenyl)acrylamide], the “Ba/F3 (NPH) Activity” value is “A (GI50 < 50 nM)”.
As for `C=CC(=O)Nc1cc(Nc2cc(N3OCC[C@@H]3c3ccc(F)cc3F)ncn2)c(OC)cc1N1CCC(N2CCC(N(C)C)CC2)CC1` [compound 478, N-(5-((6-((R)-3-(2,4-difluorophenyl)isoxazolidine-2-yl)pyrimidine-4-yl)amino)-2-(4-(dimethylamino)-[1,4'-bipiperidine]-1'-yl)-4-methoxyphenyl) acrylamide], the entry is “A (GI50 < 50 nM)”.
Turning to `C=CC(=O)Nc1cc(Nc2cc(N3OCC[C@@H]3c3ccc(Cl)cc3)ncn2)c(OC)cc1N1CC[C@@H](N(C)C)C1` [compound 695, N-(5-((6-((R)-3-(4-chlorophenyl)isoxazolidine-2-yl)pyrimidine-4-yl)amino)-2-((R)-3-(dimethylamino)pyrolidine-1-yl)-4-methoxyphenyl) acrylamide], the “Ba/F3 (NPH) Activity” value is recorded as “B (50 nM ≤ GI50 < 500 nM)”.
Under `C=CC(=O)Nc1cc(Nc2cc(N3OCC[C@@H]3c3cccc(OC)c3)ncn2)c(OC)cc1N1CCC(N2CCN(C3COC3)CC2)CC1` [Example 81, N-(4-methoxy-5-((6-((R)-3-(3-methoxyphenyl)isoxazolidine-2-yl)pyrimidine-4-yl)amino)-2-(4-(4-(oxetane-3-yl)piperazine-1-yl)piperidine-yl)phenyl) acrylamide] stands “B (50 nM ≤ GI50 < 500 nM)”; under `C=CC(=O)Nc1cc(Nc2cc(N3OCC[C@@H]3c3cccc(Cl)c3Cl)ncn2)c(OC)cc1N1CCC(N(C)CCN(C)C)CC1` [compound 613, N-(5-((6-((R)-3-(2,3-dichlorophenyl)isoxazolidine-2-yl)pyrimidine-4-yl)amino)-2-(4-((2-(dimethylamino)ethyl) (methyl)aino)piperidine-1-yl)-4-methoxyphenyl) acrylamide], “B (50 nM ≤ GI50 < 500 nM)”.
Take `C=CC(=O)Nc1cc(Nc2cc(N3OCC[C@@H]3c3cccc(F)c3Cl)ncn2)c(OC)cc1N1CC[C@@H](N(C)C)C1` [compound 558, N-(5-((6-((R)-3-(2-chloro-3-fluorophenyl)isoxazolidine-2-yl)pyrimidine-4-yl)amino)-2-((R)-3-(dimethylamino)pyrolidine-1-yl)-4-methoxyphenyl) acrylamide]: the “Ba/F3 (NPH) Activity” value is “A (GI50 < 50 nM)”.
As to `C=CC(=O)Nc1cc(Nc2cc(N3OCC[C@@H]3c3cc(F)cc(F)c3)ncn2)c(OC)cc1N1CCN(C)[C@H](C)C1` [compound 917, N-(5-((6-((R)-3-(3,5-difluorophenyl)isoxazolidine-2-yl)pyrimidine-4-yl)amino)-2-((R)-3,4-dimethylpiperazine-1-yl)-4-methoxyphenyl) acrylamide], the “Ba/F3 (NPH) Activity” value is recorded as “A (GI50 < 50 nM)”.
As for `C=CC(=O)Nc1cc(Nc2cc(N3OCC[C@@H]3c3cccc(Cl)c3Cl)ncn2)c(OC)cc1N1CCN(C2CCN(C)CC2)CC1` [compound 562, N-(5-((6-((R)-3-(2,3-dichlorophenyl)isoxazolidine-2-yl)pyrimidine-4-yl)amino)-4-methoxy-2-(4-(1-methylpiperidine-4-yl)piperazine-1-yl)phenyl) acrylamide], the entry is “B (50 nM ≤ GI50 < 500 nM)”; as for `C=CC(=O)Nc1cc(Nc2cc(N3OCC[C@@H]3c3ccc(F)c(Cl)c3)ncn2)c(OC)cc1N1CCC(N2CCO[C@@H](C)C2)CC1` [compound 873, N-(5-((6-((R)-3-(3-chloro-4-fluorophenyl)isoxazolidine-2-yl)pyrimidine-4-yl)amino)-4-methoxy-2-(4-((S)-2-methylmorpholino)piperidine-1-yl)phenyl) acrylamide], “A (GI50 < 50 nM)”; as for `C=CC(=O)Nc1cc(Nc2cc(N3OCC[C@@H]3c3cc(F)ccc3F)ncn2)c(OC)cc1N1C[C@H]2C[C@@H]1CO2` [compound 328, N-(2-((1R,4R)-2-oxa-5-azabicyclo[2.2.1]heptane-5-yl)-5-((6-((R)-3-(2,5-difluorophenyl)isoxazolidine-2-yl)pyrimidine-4-yl)amino)-4-methoxyphenyl) acrylamide], “A (GI50 < 50 nM)”.
As for `C=CC(=O)Nc1cc(Nc2cc(N3OCC[C@@H]3c3cccc(Cl)c3)ncn2)c(OC)cc1N1CCC(N2C[C@@H]3C[C@H]2CO3)CC1` [compound 462, N-(2-(4-((1S,4S)-2-oxa-5-azabicyclo [2.2.1]heptane-5-yl)piperidine-1-yl)-5-((6-((R)-3-(3-chlorophenyl)isoxazolidine-2-yl)pyrimidine-4-yl)amino)-4-methoxyphenyl) acrylamide], the entry is “A (GI50 < 50 nM)”; as for `C=CC(=O)Nc1cc(Nc2cc(N3OCC[C@@H]3c3cccc(F)c3)ncn2)c(OC)cc1N1C[C@H]2C[C@@H]1CO2` [compound 833, N-(2-((1R,4R)-2-oxa-5-azabicyclo[2.2.1]heptane-5-yl)-5-((6-((R)-3-(3-fluorophenyl)isoxazolidine-2-yl)pyrimidine-4-yl)amino)-4-methoxyphenyl) acrylamide], “A (GI50 < 50 nM)”.
